What all share (assay type): binding
What all share (conditions): Compound Concentration 10 µM

Assay [1] concerns the target T1, panel of 442 kinases (Homo sapiens, UniProt P35916).
T1 construct: purchased KINOMEscan
The source says:
(§1) We assessed the selectivity of members of this scaffold using the KINOMEscan methodology across a near comprehensive panel of 442 kinases [[18,27]].

For assay [2], the target named is T2, panel of 442 kinases (Homo sapiens, UniProt Q12851).
T2 construct: purchased KINOMEscan
T2 sequence (Q12851 1-820): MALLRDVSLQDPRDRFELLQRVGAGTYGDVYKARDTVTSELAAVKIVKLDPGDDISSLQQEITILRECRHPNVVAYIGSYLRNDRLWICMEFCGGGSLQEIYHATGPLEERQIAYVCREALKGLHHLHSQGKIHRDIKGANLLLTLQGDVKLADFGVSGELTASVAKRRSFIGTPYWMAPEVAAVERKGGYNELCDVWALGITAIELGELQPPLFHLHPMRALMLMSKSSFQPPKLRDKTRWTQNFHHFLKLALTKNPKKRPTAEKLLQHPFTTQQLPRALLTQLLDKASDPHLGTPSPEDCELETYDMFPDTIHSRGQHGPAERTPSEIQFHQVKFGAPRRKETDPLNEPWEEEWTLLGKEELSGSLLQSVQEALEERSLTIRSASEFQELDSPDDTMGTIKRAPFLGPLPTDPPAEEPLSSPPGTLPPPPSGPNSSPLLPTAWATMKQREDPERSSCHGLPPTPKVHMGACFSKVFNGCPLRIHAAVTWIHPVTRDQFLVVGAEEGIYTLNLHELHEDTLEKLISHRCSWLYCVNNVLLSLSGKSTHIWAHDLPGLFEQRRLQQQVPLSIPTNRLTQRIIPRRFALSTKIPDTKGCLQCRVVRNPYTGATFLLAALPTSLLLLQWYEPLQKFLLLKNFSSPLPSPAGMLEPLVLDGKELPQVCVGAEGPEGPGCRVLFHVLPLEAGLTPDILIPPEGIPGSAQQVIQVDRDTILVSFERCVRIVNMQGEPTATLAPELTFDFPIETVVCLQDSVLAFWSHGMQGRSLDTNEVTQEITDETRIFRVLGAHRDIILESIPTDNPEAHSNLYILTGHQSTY
Excerpt: as §1

Assay [3] addresses T3, panel of 442 kinases (Homo sapiens, UniProt Q86Z02).
T3 construct: purchased KINOMEscan
Excerpt: as §1

The values that follow come from PMC3914206.

T1 sequence (P35916 25-1363): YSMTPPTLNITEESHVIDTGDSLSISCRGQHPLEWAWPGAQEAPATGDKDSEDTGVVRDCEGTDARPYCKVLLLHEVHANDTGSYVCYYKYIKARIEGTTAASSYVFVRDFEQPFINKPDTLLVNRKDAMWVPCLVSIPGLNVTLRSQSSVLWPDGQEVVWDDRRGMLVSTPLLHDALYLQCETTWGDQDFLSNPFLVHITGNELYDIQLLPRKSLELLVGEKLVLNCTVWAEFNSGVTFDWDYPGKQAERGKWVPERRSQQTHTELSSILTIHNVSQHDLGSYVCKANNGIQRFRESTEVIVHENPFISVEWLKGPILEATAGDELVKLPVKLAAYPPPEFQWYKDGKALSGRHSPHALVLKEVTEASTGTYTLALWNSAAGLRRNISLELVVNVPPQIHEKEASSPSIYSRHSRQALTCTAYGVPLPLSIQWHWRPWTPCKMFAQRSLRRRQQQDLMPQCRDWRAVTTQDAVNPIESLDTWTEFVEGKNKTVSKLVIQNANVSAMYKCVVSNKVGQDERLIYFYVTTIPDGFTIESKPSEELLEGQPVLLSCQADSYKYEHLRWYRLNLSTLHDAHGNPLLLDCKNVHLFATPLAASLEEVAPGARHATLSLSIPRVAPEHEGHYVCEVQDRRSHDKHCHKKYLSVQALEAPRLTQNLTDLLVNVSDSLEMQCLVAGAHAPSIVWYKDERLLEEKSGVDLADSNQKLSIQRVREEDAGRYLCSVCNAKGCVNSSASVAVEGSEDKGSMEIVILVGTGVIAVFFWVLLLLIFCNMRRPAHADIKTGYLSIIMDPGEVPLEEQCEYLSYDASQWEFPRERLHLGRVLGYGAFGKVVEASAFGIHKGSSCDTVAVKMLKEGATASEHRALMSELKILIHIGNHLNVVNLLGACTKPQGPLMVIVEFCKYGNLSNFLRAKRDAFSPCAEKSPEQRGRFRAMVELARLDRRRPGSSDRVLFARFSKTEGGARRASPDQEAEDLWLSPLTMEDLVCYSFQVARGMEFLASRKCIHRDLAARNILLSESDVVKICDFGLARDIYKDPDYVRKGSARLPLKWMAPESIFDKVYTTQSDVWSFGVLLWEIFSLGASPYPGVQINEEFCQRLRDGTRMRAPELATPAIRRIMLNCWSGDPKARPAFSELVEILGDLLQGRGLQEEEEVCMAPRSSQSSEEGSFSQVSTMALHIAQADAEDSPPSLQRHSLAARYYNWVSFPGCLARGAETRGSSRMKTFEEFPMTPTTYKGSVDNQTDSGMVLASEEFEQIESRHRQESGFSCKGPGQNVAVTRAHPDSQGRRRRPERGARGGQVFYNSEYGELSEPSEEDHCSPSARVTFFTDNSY
T3 sequence (Q86Z02 whole entry): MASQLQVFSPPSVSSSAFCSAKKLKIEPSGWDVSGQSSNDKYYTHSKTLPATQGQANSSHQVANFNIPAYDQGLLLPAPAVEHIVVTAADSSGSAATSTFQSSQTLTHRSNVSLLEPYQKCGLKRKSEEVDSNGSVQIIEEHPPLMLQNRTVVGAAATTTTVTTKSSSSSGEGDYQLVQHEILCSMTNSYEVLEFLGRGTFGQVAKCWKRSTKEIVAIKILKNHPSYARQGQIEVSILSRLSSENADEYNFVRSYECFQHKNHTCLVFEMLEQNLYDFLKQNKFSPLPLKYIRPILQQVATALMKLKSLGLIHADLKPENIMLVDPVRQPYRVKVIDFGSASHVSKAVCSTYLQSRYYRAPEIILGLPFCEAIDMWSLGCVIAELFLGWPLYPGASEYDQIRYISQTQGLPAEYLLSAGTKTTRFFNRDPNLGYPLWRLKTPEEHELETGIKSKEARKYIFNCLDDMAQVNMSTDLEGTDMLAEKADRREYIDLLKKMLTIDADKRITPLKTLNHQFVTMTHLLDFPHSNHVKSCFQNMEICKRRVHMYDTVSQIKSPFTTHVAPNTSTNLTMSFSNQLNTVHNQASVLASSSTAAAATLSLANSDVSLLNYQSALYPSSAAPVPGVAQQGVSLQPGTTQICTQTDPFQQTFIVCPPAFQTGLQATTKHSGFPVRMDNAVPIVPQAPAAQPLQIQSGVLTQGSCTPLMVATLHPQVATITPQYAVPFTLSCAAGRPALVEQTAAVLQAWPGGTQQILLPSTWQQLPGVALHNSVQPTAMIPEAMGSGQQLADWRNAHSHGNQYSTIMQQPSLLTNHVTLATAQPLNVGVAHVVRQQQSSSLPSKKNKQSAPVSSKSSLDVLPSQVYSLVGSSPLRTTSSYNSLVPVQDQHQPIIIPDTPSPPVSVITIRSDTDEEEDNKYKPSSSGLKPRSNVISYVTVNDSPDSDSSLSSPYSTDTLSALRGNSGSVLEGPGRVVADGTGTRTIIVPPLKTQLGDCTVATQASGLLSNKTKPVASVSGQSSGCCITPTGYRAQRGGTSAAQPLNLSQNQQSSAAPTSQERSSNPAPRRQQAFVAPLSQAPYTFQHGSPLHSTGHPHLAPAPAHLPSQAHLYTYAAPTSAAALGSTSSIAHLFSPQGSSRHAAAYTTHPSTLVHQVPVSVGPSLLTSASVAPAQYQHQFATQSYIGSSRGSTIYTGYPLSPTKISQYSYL

On to `COc1cc(C(=O)N2CCC(N3CCN(C)CC3)CC2)ccc1Nc1ncc2c(n1)N(C1CCCC1)c1ccccc1C(=O)N2C` [Compound 25, 11-cyclopentyl-2-((2-methoxy-4-(4-(4-methylpiperazin-1-yl)piperidine-1-carbonyl)phenyl)amino)-5-methyl-5H-benzo[e]pyrimido[5,4-b][1,4]diazepin-6(11H)-one], for which the “KINOMEscan: FLT4” value on panel of 442 kinases [1] is 100. Moreover, the “KINOMEscan: MAP4K2” value at panel of 442 kinases [2] amounted to 100. Besides, the “KINOMEscan: HIPK1” value at panel of 442 kinases [3] is 100.

Turning to `COc1cc(C(=O)N2CCC(N3CCN(C)CC3)CC2)ccc1Nc1ncc2c(n1)N1CCc3cccc(c31)C(=O)N2C` [Compound 24], the “KINOMEscan: HIPK1” value on panel of 442 kinases [3] is given as 52.

Take `COc1cc(C(=O)N2CCC(N3CCN(C)CC3)CC2)ccc1Nc1ncc2c(n1)N(C)c1ccccc1C(=O)N2C` [15 (LRRK2-IN-1)]: the “KINOMEscan: FLT4” value at panel of 442 kinases [1] was determined as 100. For the same molecule, the “KINOMEscan: MAP4K2” value at panel of 442 kinases [2] turned out to be 100. Further, the “KINOMEscan: HIPK1” value at panel of 442 kinases [3] is 100.

Consider `CCOc1cc(C(=O)N2CCC(N3CCN(C)CC3)CC2)ccc1Nc1ncc2c(n1)N(C1CCCC1)c1ccccc1C(=O)N2C` [Compound 26], for which the “KINOMEscan: FLT4” value on panel of 442 kinases [1] worked out at 100. Moreover, the “KINOMEscan: MAP4K2” value at panel of 442 kinases [2] amounted to 92. In addition, the “KINOMEscan: HIPK1” value on panel of 442 kinases [3] worked out at 100.
